Reference: patent publication US20240366589A1, “NHE3-BINDING COMPOUNDS AND METHODS FOR INHIBITING PHOSPHATE TRANSPORT” (Ardelyx, Inc., priority 2013, published 2024)

Columns and labels:
Rat NHE3 = target: T1, Rat NHE3 (Rattus norvegicus, UniProt P26433); experiment: Cell-based NHE3 activity under prompt conditions (OK cells, BCECF pH recovery), rat NHE3; settings: prompt conditions
T1 construct: expressed in transfected cells; host or cells: Opossum kidney (OK) cells (ATCC), electroporation
Outline: (§1)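 Fluorometric NHE3 antiport assay in opossum kidney cells carrying rat or human NHE3, using BCECF pH recovery after NH4Cl-prepulse acid loading. pIC50 values derive from initial rates averaged across at least two replicates.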

Human NHE3 = target: T2, Human NHE3 (Homo sapiens, UniProt P48764); experiment: Cell-based NHE3 activity under prompt conditions (OK cells, BCECF pH recovery), human NHE3; settings: prompt conditions
T2 construct: expressed in transfected cells; host or cells: Opossum kidney (OK) cells (ATCC), electroporation
T2 sequence (P48764 26-834): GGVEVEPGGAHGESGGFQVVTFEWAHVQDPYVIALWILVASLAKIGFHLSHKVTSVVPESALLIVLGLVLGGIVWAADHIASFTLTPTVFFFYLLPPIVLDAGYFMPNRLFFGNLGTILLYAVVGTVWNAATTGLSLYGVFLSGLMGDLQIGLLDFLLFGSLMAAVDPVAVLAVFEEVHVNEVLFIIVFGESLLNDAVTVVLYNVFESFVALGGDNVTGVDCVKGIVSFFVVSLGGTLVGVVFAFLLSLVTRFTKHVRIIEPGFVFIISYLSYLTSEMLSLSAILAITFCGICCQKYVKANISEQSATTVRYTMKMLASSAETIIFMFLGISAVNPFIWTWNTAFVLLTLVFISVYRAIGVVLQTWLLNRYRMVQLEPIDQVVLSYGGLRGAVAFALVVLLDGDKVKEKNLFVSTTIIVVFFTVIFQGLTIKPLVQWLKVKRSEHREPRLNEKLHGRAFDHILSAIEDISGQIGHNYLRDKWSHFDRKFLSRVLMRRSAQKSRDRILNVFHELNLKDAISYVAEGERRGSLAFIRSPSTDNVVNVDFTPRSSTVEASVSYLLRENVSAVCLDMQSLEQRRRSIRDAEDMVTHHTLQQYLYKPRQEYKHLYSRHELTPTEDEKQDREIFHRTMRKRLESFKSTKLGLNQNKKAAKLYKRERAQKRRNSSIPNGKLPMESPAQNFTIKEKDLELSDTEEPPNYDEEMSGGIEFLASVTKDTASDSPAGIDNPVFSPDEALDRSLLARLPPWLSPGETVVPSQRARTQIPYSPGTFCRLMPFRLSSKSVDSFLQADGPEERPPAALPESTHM
Outline: as §1

[1] = test system: absorption of sodium from the intestinal lumen; experiment: Inhibition of intestinal sodium absorption: urinary sodium (uNa) 16 h after single oral dose in rats; format: in vivo, rat; settings: oral gavage, 16 h post-dose
Outline: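 Urinary sodium mass over the 16 h after one oral gavage dose, measured by cation-exchange ion chromatography, reported as percent of water-vehicle group; ANOVA plus Dunnett's post hoc test. Groups of six 8-week-old Sprague-Dawley rats, housed individually in metabolic cages post-dose, fed and watered freely.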

[2] = test system: absorption of sodium from the intestinal lumen; experiment: Fecal form score (FFS) 16 h after oral dose in rats; format: in vivo, rat; settings: oral gavage, 16 h post-dose, scale 1-5
Outline: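 Fecal form was scored at 16 h post-dose on a 1–5 wetness scale (normal pellet to liquid stream), with two independent observations averaged across six rats per group. Animals were 8-week-old Sprague-Dawley rats given test compound or water orally in the late afternoon and kept in metabolic cages.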

[3] = test system: phosphorus and calcium levels in the urine of rats; experiment: Urinary excretion of phosphate and calcium in rats (16 h overnight urine); format: in vivo, rat; settings: rats, oral gavage, 16 h post-dose

T1 sequence (P26433 29-831): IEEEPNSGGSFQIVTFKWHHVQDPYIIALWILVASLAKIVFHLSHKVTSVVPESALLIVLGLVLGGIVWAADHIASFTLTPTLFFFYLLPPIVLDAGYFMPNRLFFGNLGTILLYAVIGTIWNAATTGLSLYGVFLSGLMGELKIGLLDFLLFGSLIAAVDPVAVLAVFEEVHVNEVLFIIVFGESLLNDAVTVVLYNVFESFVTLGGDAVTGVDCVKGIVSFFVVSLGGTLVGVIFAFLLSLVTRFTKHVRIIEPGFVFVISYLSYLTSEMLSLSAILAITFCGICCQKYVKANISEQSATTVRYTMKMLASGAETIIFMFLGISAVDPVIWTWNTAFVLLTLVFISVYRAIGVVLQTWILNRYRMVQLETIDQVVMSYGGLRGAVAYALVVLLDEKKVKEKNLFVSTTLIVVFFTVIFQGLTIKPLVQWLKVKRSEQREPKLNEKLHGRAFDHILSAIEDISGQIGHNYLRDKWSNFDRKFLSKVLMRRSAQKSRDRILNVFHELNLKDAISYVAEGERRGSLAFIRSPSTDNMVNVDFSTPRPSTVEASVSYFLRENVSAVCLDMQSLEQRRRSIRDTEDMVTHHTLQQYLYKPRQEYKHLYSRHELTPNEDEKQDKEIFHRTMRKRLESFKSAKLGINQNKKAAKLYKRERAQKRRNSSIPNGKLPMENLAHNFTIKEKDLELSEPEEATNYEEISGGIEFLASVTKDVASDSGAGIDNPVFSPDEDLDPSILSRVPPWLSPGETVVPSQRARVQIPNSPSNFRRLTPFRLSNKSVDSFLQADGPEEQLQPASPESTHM

Row | Prompt Rat NHE3 pIC50 (Rat NHE3) | Prompt Human NHE3 pIC50 (Human NHE3) | SMILES | Urine Na % of control ([1]; dose 1 mg/kg) | Urine Na % of control ([1]; dose 3 mg/kg) | Fecal Form Score average ([2]; dose 1 mg/kg) | Fecal Form Score average ([2]; dose 3 mg/kg) | Urine P % of control ([3]; dose 1 mg/kg) | Urine P % of control ([3]; dose 3 mg/kg) | Urine Na % of control ([1]; dose 10 mg/kg) | Fecal Form Score average ([2]; dose 10 mg/kg) | Urine P % of control ([3]; dose 10 mg/kg) | other results
1 | 8.40 | 8.10 | O=C(NCCOCCOCCNS(=O)(=O)c1ccc(O[C@H]2c3ccccc3C[C@@H]2N2CCCCC2)cc1)[C@H](O)[C@@H](O)C(=O)NCCOCCOCCNS(=O)(=O)c1ccc(O[C@H]2c3ccccc3C[C@@H]2N2CCCCC2)cc1 [compound 98] |  |  |  |  |  |  | 83% | 1 | 88% | 
2 | <5.00 | <5.00 | CN1Cc2c(Cl)cc(Cl)cc2[C@H](c2cccc(S(=O)(=O)NCCOCCOCCNC(=O)CCC(CCC(=O)NCCOCCOCCNS(=O)(=O)c3cccc([C@@H]4CN(C)Cc5c(Cl)cc(Cl)cc54)c3)(CCC(=O)NCCOCCOCCNS(=O)(=O)c3cccc([C@@H]4CN(C)Cc5c(Cl)cc(Cl)cc54)c3)NCc3ccc(-c4ccc(Cl)cc4)cc3)c2)C1 [compound 113] |  |  |  |  |  |  | 64% | 1 | 61% | 
3 | 6.90 | 8.10 | CN1Cc2c(Cl)cc(Cl)cc2[C@H](c2cccc(S(=O)(=O)NCCOCCOCCNC(=O)N(C)CCCN(CCCN(C)C(=O)NCCOCCOCCNS(=O)(=O)c3cccc([C@@H]4CN(C)Cc5c(Cl)cc(Cl)cc54)c3)CCCN(C)C(=O)NCCOCCOCCNS(=O)(=O)c3cccc([C@@H]4CN(C)Cc5c(Cl)cc(Cl)cc54)c3)c2)C1 [compound 107] | 88% | 55% | 1 | 1 | 106% | 66% | 28% | 4 | 59% | 
4 | 7.40 | 8.45 | N[C@@H]1CCCN([C@H]2Cc3c(Cl)cc(Cl)cc3[C@@H]2Oc2ccc(S(=O)(=O)NCCOCCOCCNC(=O)NCCCCNC(=O)NCCOCCOCCNS(=O)(=O)c3ccc(O[C@H]4c5cc(Cl)cc(Cl)c5C[C@@H]4N4CCC[C@@H](N)C4)cc3)cc2)C1 [compound 135] | 100% | 94% | 1 | 1 | 92% | 44% | 58% | 2 | 85% | 
5 | 7.10 | 8.00 | CN(C)CC(=O)NC(CCC(=O)NCCOCCOCCNS(=O)(=O)c1cccc([C@@H]2CN(C)Cc3c(Cl)cc(Cl)cc32)c1)(CCC(=O)NCCOCCOCCNS(=O)(=O)c1cccc([C@@H]2CN(C)Cc3c(Cl)cc(Cl)cc32)c1)CCC(=O)NCCOCCOCCNS(=O)(=O)c1cccc([C@@H]2CN(C)Cc3c(Cl)cc(Cl)cc32)c1 [compound 128] | 46% | 35% | 1 | 2 | 90% | 58% |  |  |  | 
6 | <5.00 | 6.90 | CN1Cc2c(Cl)cc(Cl)cc2[C@H](c2cccc(S(=O)(=O)NCCOCCOCCNC(=O)CCC(CCC(=O)NCCOCCOCCNS(=O)(=O)c3cccc([C@@H]4CN(C)Cc5c(Cl)cc(Cl)cc54)c3)(CCC(=O)NCCOCCOCCNS(=O)(=O)c3cccc([C@@H]4CN(C)Cc5c(Cl)cc(Cl)cc54)c3)NC(=O)NC(CO)(CO)CO)c2)C1 [compound 158] |  | 32% |  | 2 |  | 64% |  |  |  | 
7 | 8.60 |  | O=C(NCCCCNC(=O)NCCOCCOCCNS(=O)(=O)c1ccc(O[C@H]2c3ccccc3C[C@@H]2N2CCCC2)cc1)NCCOCCOCCNS(=O)(=O)c1ccc(O[C@H]2c3ccccc3C[C@@H]2N2CCCC2)cc1 [compound 99] |  |  |  |  |  |  | 41% | 1 | 52% | IC50 (Human NHE3; read-out: Prompt Human NHE3 pIC50 (converted)): ≥ 10 µM

The next lines start with the compound.

Row | SMILES | Prompt Rat NHE3 pIC50 (Rat NHE3) | Prompt Human NHE3 pIC50 (Human NHE3) | Urine Na % of control ([1]; dose 1 mg/kg) | Urine Na % of control ([1]; dose 3 mg/kg) | Fecal Form Score average ([2]; dose 1 mg/kg) | Fecal Form Score average ([2]; dose 3 mg/kg) | Urine P % of control ([3]; dose 1 mg/kg) | Urine P % of control ([3]; dose 3 mg/kg) | Urine Na % of control ([1]; dose 10 mg/kg) | Fecal Form Score average ([2]; dose 10 mg/kg) | Urine P % of control ([3]; dose 10 mg/kg) | other results
8 | CN1Cc2c(Cl)cc(Cl)cc2[C@H](c2cccc(S(=O)(=O)NCCOCCOCCNC(=O)NCCCCNC(=O)NCCOCCOCCNS(=O)(=O)c3cccc([C@@H]4CN(C)Cc5c(Cl)cc(Cl)cc54)c3)c2)C1 [compound 180] | 8.03 | 8.30 | 15% | 53% | 3 | 4 | 69% | 38% |  |  |  | Urine Na % of control ([1]; dose 0.03 mg/kg): 67%; Urine Na % of control ([1]; dose 0.1 mg/kg): 45%; Urine Na % of control ([1]; dose 0.3 mg/kg): 33%; Fecal Form Score average ([2]; dose 0.03 mg/kg): 1; Fecal Form Score average ([2]; dose 0.1 mg/kg): 1; Fecal Form Score average ([2]; dose 0.3 mg/kg): 3; Urine P % of control ([3]; dose 0.03 mg/kg): 80%; Urine P % of control ([3]; dose 0.1 mg/kg): 82%; Urine P % of control ([3]; dose 0.3 mg/kg): 75%
9 | CN1Cc2c(Cl)cc(Cl)cc2[C@H](c2cccc(S(=O)(=O)NCCOCCOCCOCCNC(=O)CC(CC(=O)NCCOCCOCCOCCNS(=O)(=O)c3cccc([C@@H]4CN(C)Cc5c(Cl)cc(Cl)cc54)c3)C(=O)NCCOCCOCCOCCNS(=O)(=O)c3cccc([C@@H]4CN(C)Cc5c(Cl)cc(Cl)cc54)c3)c2)C1 [compound 84] | 7.50 | 7.70 |  |  |  |  |  |  |  |  |  | Urine Na % of control ([1]; dose 8 mg/kg): 7%; Fecal Form Score average ([2]; dose 8 mg/kg): 3; Urine P % of control ([3]; dose 8 mg/kg): 47%
10 | CN1Cc2c(Cl)cc(Cl)cc2[C@H](c2cccc(S(=O)(=O)NCCOCCOCCNC(=O)NCCN(CCNC(=O)NCCOCCOCCNS(=O)(=O)c3cccc([C@@H]4CN(C)Cc5c(Cl)cc(Cl)cc54)c3)C(=O)NCCCCCCCCCCCCNC(=O)N(CCNC(=O)NCCOCCOCCNS(=O)(=O)c3cccc([C@@H]4CN(C)Cc5c(Cl)cc(Cl)cc54)c3)CCNC(=O)NCCOCCOCCNS(=O)(=O)c3cccc([C@@H]4CN(C)Cc5c(Cl)cc(Cl)cc54)c3)c2)C1 [compound 86] | 5.80 | 5.90 |  |  |  |  |  |  | 87% | 1 | 89% | 
11 | CN1Cc2c(Cl)cc(Cl)cc2[C@H](c2cccc(S(=O)(=O)NCCOCCOCCOCCNC(=O)NCCN3CCN(c4nc(N5CCN(CCNC(=O)NCCOCCOCCOCCNS(=O)(=O)c6cccc([C@@H]7CN(C)Cc8c(Cl)cc(Cl)cc87)c6)CC5)nc(N5CCN(CCNC(=O)NCCOCCOCCOCCNS(=O)(=O)c6cccc([C@@H]7CN(C)Cc8c(Cl)cc(Cl)cc87)c6)CC5)n4)CC3)c2)C1 [compound 70] | 6.70 | 7.20 |  |  |  |  |  |  | 96% | 1 | 83% | 
12 | CN1Cc2c(Cl)cc(Cl)cc2[C@H](c2cccc(S(=O)(=O)NCCOCCOCCNC(=O)NCCN(CCNC(=O)NCCOCCOCCNS(=O)(=O)c3cccc([C@@H]4CN(C)Cc5c(Cl)cc(Cl)cc54)c3)CCNC(=O)NCCOCCOCCNS(=O)(=O)c3cccc([C@@H]4CN(C)Cc5c(Cl)cc(Cl)cc54)c3)c2)C1 [compound 76] | 5.60 | 6.40 | 58% | 40% | 1 | 2 | 96% | 89% | 12% | 3 | 61% | 
